Test results published in US20250206729A1, “DUAL RAF AND TUBULIN INHIBITORS AND METHODS OF USE THEREOF” (Deciphera Pharmaceuticals, LLC, priority 2023, published 2025).

Tests used:
[1] = target: T1, B-Raf kinase (SEQ ID NO: 1) (Homo sapiens, UniProt P15056); experiment: Biochemical assay for B-Raf (coupled pyruvate kinase/lactate dehydrogenase); settings: 1 mM ATP; read-out: BRAF (inhibition of biochemical activity, IC50)
T1 construct: GST (N); purchased Sigma

[2] = target: T2, C-Raf kinase (SEQ ID NO: 2) (Homo sapiens, UniProt P04049, Y340D/Y341D); experiment: Biochemical assay for C-Raf (coupled pyruvate kinase/lactate dehydrogenase); settings: 1 mM ATP; read-out: CRAF (inhibition of biochemical activity, IC50)
T2 construct: C-Raf residues 306-end; Y340D, Y341D with N-; GST (N); purchased Sigma
T2 sequence (P04049 307-648 Y340D/Y341D): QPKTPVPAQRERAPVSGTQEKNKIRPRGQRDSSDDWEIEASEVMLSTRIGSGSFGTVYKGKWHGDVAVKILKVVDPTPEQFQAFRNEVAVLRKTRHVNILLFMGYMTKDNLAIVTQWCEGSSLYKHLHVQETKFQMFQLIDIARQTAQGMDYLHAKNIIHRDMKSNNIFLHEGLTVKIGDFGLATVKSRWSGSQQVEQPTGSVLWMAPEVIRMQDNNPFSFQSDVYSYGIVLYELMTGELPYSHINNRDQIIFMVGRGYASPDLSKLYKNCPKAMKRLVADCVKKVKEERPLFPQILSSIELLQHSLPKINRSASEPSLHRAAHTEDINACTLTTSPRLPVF

MiaPaca-2 cells = experiment: MiaPaca-2 cell proliferation assay; assay type: cell-based; settings: Homo sapiens, MIA PaCa-2; 67-72 h incubation, resazurin; read-out: MiaPaca-2 (inhibition of cell proliferation, IC50)
Method: Miapaca-2 cells (catalog #CRL-1420) are obtained from the American Type Culture Collect (ATTC, Manassas, VA). Briefly, cells were grown in DMEM supplemented with 10% characterized fetal bovine serum (Invitrogen, Carlsbad, CA), 2.5% New Zealand sourced horse serum and 1% Penicillin/Streptomycin/L-Glutamine at 37° C., 5% CO2, and 95% humidity. Cells are expanded until reaching 70-95% confluency at which point they are sub-cultured or harvested for assay use. A serial dilution of test compound is dispensed into a 384-well black clear bottom plate in triplicate. Seven hundred fifty cells are added per well in 50 μL complete growth medium in the 384-well plate. Plates are incubated for 67-72 h at 37° C., 5% CO2, and 95% humidity. At the end of the incubation, 10 μL of a 440 μM solution of resazurin (Sigma, St. Louis, MO) in PBS is added to each well of the plate and plates are incubated for an additional 5-6 h at 37° C., 5% CO2, and 95% humidity. Plates are read on a Synergy2 or equivalent reader (Biotek, Winooski VT) using an excitation of 540 nm and an emission of 600 nm. Data is analyzed using Prism software (GraphPad, San Diego, CA) to calculate IC50 values.

HCT-116 cells = experiment: HCT-116 cell proliferation assay; assay type: cell-based; settings: Homo sapiens, HCT-116; 67 to 72 h incubation, resazurin; read-out: HCT-116 (inhibition of cell proliferation, IC50)
Method: HCT-116 cells (catalog #CCL-247) are obtained from the American Type Culture Collect (ATCC, Manassas, VA). Briefly, cells are grown in McCoy's 5A supplemented with 10% characterized fetal bovine serum (Invitrogen, Carlsbad, CA) and 1% Penicillin/Streptomycin/L-Glutamine at 37° C., 5% CO2, and 95% humidity. Cells are expanded until reaching 70-95% confluency at which point they are sub-cultured or harvested for assay use. A serial dilution of test compound is dispensed into a 384-well black clear bottom plate in triplicate. 375 cells are added per well in 50 μL complete growth medium in the 384-well plate. Plates are incubated for 67 to 72 h at 37° C., 5% CO2, and 95% humidity. At the end of the incubation, 40 μL of a […] solution of resazurin (Sigma, St. Louis, MO) in PBS is added to each well of the plate and plates are incubated for an additional 4 to 5 h at 37° C., 5% CO2, and 95% humidity. Plates are read on a Synergy2 or equivalent reader (Biotek, Winooski, VT) using an excitation of 540 nm and an emission of 600 nm. Data is analyzed using Prism software (Graphpad, San Diego, CA) to calculate IC50 values.

HPAF-II cells = experiment: HPAF-II cell proliferation assay; assay type: cell-based; settings: Homo sapiens, HPAF-II; 115 to 120 h incubation, resazurin; read-out: HPAF-II (inhibition of cell proliferation, IC50)
Method: (§1) HPAF-II cells (catalog #CRL-1997) are obtained from the American Type Culture Collect (ATCC, Manassas, VA). Briefly, cells are grown in Minimum Essential Media supplemented with 10% characterized fetal bovine serum (Invitrogen, Carlsbad, CA) and 1% Penicillin/Streptomycin/L-Glutamine at 37° C., 5% CO2, and 95% humidity. Cells are expanded until reaching 70-95% confluency at which point they are sub-cultured or harvested for assay use. A serial dilution of test compound is dispensed into a 384-well black clear bottom plate in triplicate. 750 cells are added per well in 50 μL complete growth medium in the 384-well plate. Plates are incubated for 115 to 120 h at 37° C., 5% CO2, and 95% humidity. At the end of the incubation, 40 μL of a […] solution of resazurin (Sigma, St. Louis, MO) in PBS is added to each well of the plate and plates are incubated for an additional 18 to 24 h at 37° C., 5% CO2, and 95% humidity. Plates are read on a Synergy2 or equivalent reader (Biotek, Winooski, VT) using an excitation of 540 nm and an emission of 600 nm. Data is analyzed using Prism software (Graphpad, San Diego, CA) to calculate IC50 values.

Pa16c cells = experiment: Pa16c cell proliferation assay; assay type: cell-based; settings: 67 to 72 h incubation, resazurin; read-out: Pa16c (inhibition of cell proliferation, IC50)
Method: as §1, with “Pa16c” for “HPAF-II”, “cells” for “cells (catalog #CRL-1997)”, “Dr. Channing Der, University of North Carolina at Chapel Hill.” for “the American Type Culture Collect (ATCC, Manassas, VA).”, “Dulbecco's Modified Eagle Medium” for “Minimum Essential Media”, “67” for “115”, “72” for “120”

T1 sequence (P15056 416-766): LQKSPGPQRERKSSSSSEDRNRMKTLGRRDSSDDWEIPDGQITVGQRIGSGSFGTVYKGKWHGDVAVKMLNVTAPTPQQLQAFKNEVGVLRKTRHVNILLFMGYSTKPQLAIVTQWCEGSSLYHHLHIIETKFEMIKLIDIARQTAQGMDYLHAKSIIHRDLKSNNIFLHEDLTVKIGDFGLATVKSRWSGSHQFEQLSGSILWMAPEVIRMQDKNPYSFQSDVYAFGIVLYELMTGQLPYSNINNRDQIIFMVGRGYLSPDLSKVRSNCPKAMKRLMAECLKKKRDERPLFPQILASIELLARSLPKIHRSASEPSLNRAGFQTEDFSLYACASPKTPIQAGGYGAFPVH

| Structure (SMILES) | IC50 [1] [nM] | IC50 [2] [nM] | IC50 (MiaPaca-2 cells) [nM] | IC50 (HCT-116 cells) [nM] | IC50 (HPAF-II cells) [nM] | IC50 (Pa16c cells) [nM] |
| --- | --- | --- | --- | --- | --- | --- |
| Cc1ccc(NC(=O)c2cncc(C(C)C)n2)cc1-c1cc(N[C@H](C)CO)nc(N2CCOCC2)c1 [Example 57, (R)—N-(3-(2-((1-hydroxypropan-2-yl)amino)-6-morpholinopyridin-4-yl)-4-methylphenyl)-6-isopropylpyrazine-2-carboxamide] | 100 to 500 | 100 to 500 | 1000 to 10000 | 1000 to 10000 | 1000 to 10000 | 1000 to 10000 |
| Cc1ccc(NC(=O)c2cc(C(C)C)cnn2)cc1-c1ccnc(N2CCOCC2)c1 [Example 58] | 100 to 500 | < 100 | 500 to 1000 | 100 to 500 | 100 to 500 | 100 to 500 |
| CNc1cc(-c2cc(NC(=O)c3cc(C(F)(F)F)cnn3)ccc2C)cc(N2CCOCC2)n1 [Example 61] | < 100 | < 100 | < 100 | < 100 | < 100 | < 100 |
| Cc1ccc(NC(=O)c2cnc(C(F)(F)F)nc2)cc1-c1cc(OCCO)nc(N2CCOCC2)c1 [Example 11] | 1000 to 10000 | 500 to 1000 | 100 to 500 | 100 to 500 | 100 to 500 | 500 to 1000 |
| Cc1cc(-c2cc(NC(=O)c3cc(C4CCC4)cnn3)ccc2C)cc(N2CCOCC2)n1 [Example 42] | < 100 | < 100 | 100 to 500 | 100 to 500 | 100 to 500 | 100 to 500 |
| Cc1ccc(NC(=O)c2cncc(Cl)n2)cc1-c1cc(N[C@H](C)CO)nc(N2CCOCC2)c1 [Example 9] | 100 to 500 | 100 to 500 | 1000 to 10000 | 1000 to 10000 | 500 to 1000 | 1000 to 10000 |
| Cc1ccc(NC(=O)c2cc(C(F)(F)F)cnn2)cc1-c1ccnc(N2CCOC(C(F)(F)F)C2)c1 (stereo not drawn) [Example 8] | 1000 to 10000 | 1000 to 10000 | 100 to 500 | 100 to 500 | 500 to 1000 | 500 to 1000 |
| Cc1ccc(NC(=O)c2cnc(C(C)C)nc2)cc1-c1cc(N[C@H](C)CO)nc(N2CCOCC2)c1 [Example 54] | 100 to 500 | < 100 | 1000 to 10000 | 1000 to 10000 | 1000 to 10000 | 1000 to 10000 |
| Cc1ccc(NC(=O)c2cc(C(F)(F)F)cnn2)cc1-c1cnnc(N2CCOCC2)c1 [Example 21, N-(4-methyl-3-(6-morpholinopyridazin-4-yl)phenyl)-5-(trifluoromethyl)pyridazine-3-carboxamide] | 500 to 1000 | 500 to 1000 | 500 to 1000 | 500 to 1000 | 500 to 1000 | 1000 to 10000 |
| Cc1ccc(NC(=O)c2cc(C3CCC3)cnn2)cc1-c1cc(OCCO)nc(N2CCOCC2)c1 [Example 50] | < 100 | < 100 | < 100 | < 100 | < 100 | < 100 |
| Cc1ccc(NC(=O)c2cnc(C(F)(F)F)nc2)cc1-c1cc(N[C@H](C)CO)nc(N2CCOCC2)c1 [Example 12] | 500 to 1000 | 100 to 500 | 500 to 1000 | 1000 to 10000 | 1000 to 10000 | 1000 to 10000 |

Now from value to molecule, other results behind:

| IC50 [1] [nM] | IC50 [2] [nM] | IC50 (MiaPaca-2 cells) [nM] | IC50 (HCT-116 cells) [nM] | Structure (SMILES) | IC50 (HPAF-II cells) [nM] | IC50 (Pa16c cells) [nM] |
| --- | --- | --- | --- | --- | --- | --- |
| 100 to 500 | 100 to 500 | < 100 | < 100 | Cc1ccc(NC(=O)c2cc(C(F)(F)F)cnn2)cc1-c1cc(N[C@H](C)CO)nc(N2C[C@H]3C[C@@H]2CO3)c1 [Example 93] | < 100 | < 100 |
| 1000 to 10000 | 500 to 1000 | 100 to 500 | 500 to 1000 | Cc1ccc(NC(=O)c2cc(C(N)=O)cnn2)cc1-c1cc(N[C@H](C)CO)nc(N2CCOCC2)c1 [Example 80] | 1000 to 10000 | 1000 to 10000 |
| < 100 | < 100 | < 100 | < 100 | Cc1ccc(NC(=O)c2cc(C(C)(F)F)cnn2)cc1-c1cc(N[C@H](C)CO)nc(N2CCOCC2)c1 [Example 66] | < 100 | < 100 |
| 1000 to 10000 | 1000 to 10000 | 100 to 500 | 1000 to 10000 | Cc1ccc(NC(=O)c2cc(Cl)cnn2)cc1-c1ccnc(N2CCOCC2)n1 [Example 71] | 1000 to 10000 | 1000 to 10000 |
| 100 to 500 | < 100 | 500 to 1000 | 500 to 1000 | Cc1ccc(NC(=O)c2cc(Br)cnn2)cc1-c1cc(OCCO)nc(N2CCOCC2)c1 [Example 78] | 1000 to 10000 | 1000 to 10000 |
| 100 to 500 | < 100 | 100 to 500 | 100 to 500 | Cc1ccc(NC(=O)c2cc(Br)cnn2)cc1-c1cc(N[C@H](C)CO)nc(N2CCOCC2)c1 [Example 82] | 1000 to 10000 | 1000 to 10000 |
| 500 to 1000 | 100 to 500 | < 100 | < 100 | Cc1ccc(NC(=O)c2cc(C#N)cnn2)cc1-c1cc(N[C@H](C)CO)nc(N2CCOCC2)c1 [Example 81] | < 100 | < 100 |
| 100 to 500 | 100 to 500 | < 100 | < 100 | Cc1ccc(NC(=O)c2cc(C(F)(F)F)cnn2)cc1-c1ccnc(N2C[C@@H]3C[C@H]2CO3)c1 [Example 87] | < 100 | < 100 |
| 100 to 500 | 100 to 500 | < 100 | < 100 | CNc1cc(-c2cc(NC(=O)c3cc(C(F)(F)F)cnn3)ccc2C)cc(N2C[C@H]3C[C@@H]2CO3)n1 [Example 92] | < 100 | < 100 |
| 1000 to 10000 | 1000 to 10000 | 100 to 500 | 100 to 500 | Cc1ccc(NC(=O)c2cc(C(F)(F)F)cnn2)cc1-c1nc(N[C@H](C)CO)cc(N2C[C@H]3C[C@@H]2CO3)n1 [Example 90] | 500 to 1000 | 1000 to 10000 |
